# Measured values as given in PMC11477141, “Chemokine Receptor N-Terminus Charge Dictates Reliance on Post-Translational Modifications for Effective Ligand Capture and Following Boosting by Defense Peptides” (International Journal of Molecular Sciences, 2024).
# Where no end group is shown, it is not given here.
# Legend:
# Y10A-CCR5 = assay: BRET CAMYEL Gαi signaling via Y10A-CCR5; assay type: cell-based, human; conditions: CHO cells, n = 3
# Description: (§1) BRET measurements of Gαi signaling and β-arrestin recruitment: Cells were seeded in 6-well plates (500,000 cells/well) and transiently transfected the following day. For BRET measurements of Gαi signaling, cells were transfected with vectors encoding the human chemokine receptors as indicated (160 ng/well) and the CAMYEL sensor (cAMP sensor, YFP-Epac-RLuc) (840 ng/well) using Lipofectamine (6 µL/well). Briefly, DNA was dissolved in 125 µL OPTI-MEM and Lipofectamine was dissolved in 125 µL OPTI-MEM. The DNA and Lipofectamine solutions were combined into a transfection mixture. The transfection mixture was added dropwise to cells incubated in OPTI-MEM (1 mL/well). Transfections were terminated after 5 h by adding 1 mL of fresh culture medium on top of the OPTI-MEM. The following day the cells were loosened from the plates in PBS with 5 mM glucose and subsequently aliquoted in white 96-well iso plates (~25,000 cells/well). […] The BRET signal is determined as the ratio eYFP (530 nm)/Rluc (480 nm).
# (§2) BRET principle with CAMYEL: For quantification of signaling initiated immediately downstream of receptor activation, we used the cAMP binding CAMYEL sensor to perform bioluminescence resonance energy transfer (BRET) based assays. […] The BRET ratio is determined as the ratio between YFP/Rluc, and an increase in BRET ratio indicates a decrease in cAMP and thus increased chemokine receptor activation. […]
# S6S7T16S17AAAA-CCR5 = assay: BRET CAMYEL Gαi signaling via S6S7T16S17AAAA-CCR5; assay type: cell-based, human; conditions: CHO cells, n = 3
# Description: as §1, §2
# S6S7AA-CCR5 = assay: BRET CAMYEL Gαi signaling via S6S7AA-CCR5; assay type: cell-based, human; conditions: CHO cells, n = 3
# Description: as §1, §2
# Y10Y14Y15AAA-CCR5 = assay: BRET CAMYEL Gαi signaling via Y10Y14Y15AAA-CCR5; assay type: cell-based, human; conditions: CHO cells, n = 3
# Description: as §1, §2
# T16S17AA-CCR5 = assay: BRET CAMYEL Gαi signaling via T16S17AA-CCR5; assay type: cell-based, human; conditions: CHO cells, n = 3
# Description: as §1, §2
# CCR5 = target: T1, CCR5 (Homo sapiens, UniProt P51681); assay: BRET CAMYEL cAMP sensor assay of ligand-induced Gαi signaling via CCR5; assay type: cell-based; conditions: n = 3
# T1 construct: expressed in transfected cells; host or cells: CHO-K1, CHO-pgsB618 (GAG-minus), HEK293 WT / DeltaSia / sC
# T1 sequence (P51681 whole entry): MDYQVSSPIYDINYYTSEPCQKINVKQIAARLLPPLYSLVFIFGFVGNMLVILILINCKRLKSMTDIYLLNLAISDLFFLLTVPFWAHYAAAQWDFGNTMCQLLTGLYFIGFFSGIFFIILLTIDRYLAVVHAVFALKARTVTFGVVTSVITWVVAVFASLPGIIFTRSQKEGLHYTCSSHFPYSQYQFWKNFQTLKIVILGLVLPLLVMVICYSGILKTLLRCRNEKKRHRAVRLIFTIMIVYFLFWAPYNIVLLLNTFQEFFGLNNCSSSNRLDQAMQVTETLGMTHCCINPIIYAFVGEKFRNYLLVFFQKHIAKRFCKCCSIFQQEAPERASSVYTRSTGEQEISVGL
# Description: For quantification of signaling initiated immediate downstream of receptor activation, we used the cAMP binding CAMYEL sensor to perform bioluminescence resonance energy transfer (BRET)-based assays. Shortly, in this assay increased receptor activation leads to an increase in BRET ratio. For detailed information see the Materials and Methods section.
# In signaling assays testing the boosting ability of basic peptides, transfected cells were aliquoted into 96-well plates in the presence of 10 µM peptide or PBS vehicle. After R-Luc substrate addition, chemokines were added to reach final concentrations ranging from 0–100 nM (0, 0.1, 1, 10, and 100 nM) and forskolin was applied before reading emission at 475 and 525 nm.
# BRET measurements of Gαi signaling and β-arrestin recruitment: Cells were seeded in 6-well plates (500,000 cells/well) and transiently transfected the following day. For BRET measurements of Gαi signaling, cells were transfected with vectors encoding the human chemokine receptors as indicated (160 ng/well) and the CAMYEL sensor (cAMP sensor, YFP-Epac-RLuc) (840 ng/well) using Lipofectamine (6 µL/well). Briefly, DNA was dissolved in 125 µL OPTI-MEM and Lipofectamine was dissolved in 125 µL OPTI-MEM. The DNA and Lipofectamine solutions were combined into a transfection mixture. The transfection mixture was added dropwise to cells incubated in OPTI-MEM (1 mL/well). Transfections were terminated after 5 h by adding 1 mL of fresh culture medium on top of the OPTI-MEM. The following day the cells were loosened from the plates in PBS with 5 mM glucose and subsequently aliquoted in white 96-well iso plates (~25,000 cells/well). When using C21TP variants and defense peptides (hBD2 and histatin), these were added to a final concentration of 10 μM/well, while an equal amount of PBS was added to control cells. The bioluminescence substrate coelenterazine was added to a final conc. of 5 µM. After 10 min, varying ligand concentrations were added. For BRET measurements of Gαi signaling, forskolin was added 5 min after the addition of the ligand, to a final conc. of 5 µM. The plates were kept in the dark at all times. A Perkin Elmer Envision machine was used for measuring the emission signals at 530 and 480 nm. The BRET signal is determined as the ratio eYFP (530 nm)/Rluc (480 nm).
# BRET principle with CAMYEL: For quantification of signaling initiated immediately downstream of receptor activation, we used the cAMP binding CAMYEL sensor to perform bioluminescence resonance energy transfer (BRET) based assays. In this assay we measure changes in intracellular cAMP levels in response to receptor activation. Activation of chemokine receptors lead to a decrease in cAMP through inhibition of adenylate cyclase (AC). In the current setup we initially add forskolin that stimulates AC directly to induce an increase in intracellular cAMP, and we then measure the ability of a ligand (chemokine) to counteract the forskolin-induced increase in cAMP. The cAMP sensor (CAMYEL cAMP sensor, YFP-Epac-RLuc) carries the donor Renilla luciferase (Rluc) and the acceptor YFP. Coelenterazine is a substrate for Rluc that will emit light at around 475 nm upon enzymatic cleavage catalyzed by Rluc. When Rluc and YFP are in close proximity, the energy from the emitted light from coelenterazine can be transferred to YFP, resulting in an excitation of YFP, leading to a BRET signal around 525 nm. EPAC is a cAMP binding protein that changes conformation upon cAMP binding. During low cAMP concentrations, Rluc and YFP are near each other, and a strong BRET signal at 525 nm is obtained. When cAMP levels increase, cAMP will bind to EPAC, creating a conformational change, separating Rluc and YFP, reducing the BRET ratio, and increasing the emission from Rluc at 475 nm. Thus, by measuring the ratio between the cAMP-bound (475 nm) and the cAMP-free (525 nm) state of CAMYEL we obtain a measure of receptor activation. […]
# [1] = CHO-K1 cells, 10 µM peptide, chemokine 0-100 nM
# [2] = HEK293 WT, DeltaSia and sC cells, 10 µM peptide
# [3] = M1-tagged CCR5, HEK293 WT, DeltaSia and sC cells, 10 µM peptide
substance,measurement,setting,value
"CCL5: human chemokine from Peprotech, overall basic",Gαi signaling via Y10A-CCR5 compared to WT-CCR5,Y10A-CCR5,significantly reduced
same,Gαi signaling via S6S7T16S17AAAA-CCR5 compared to WT-CCR5,S6S7T16S17AAAA-CCR5,completely abolished
same,Gαi signaling via S6S7AA-CCR5 compared to WT-CCR5,S6S7AA-CCR5,significantly reduced
same,Gαi signaling via Y10Y14Y15AAA-CCR5 compared to WT-CCR5,Y10Y14Y15AAA-CCR5,completely abolished
same,Gαi signaling via T16S17AA-CCR5 compared to WT-CCR5,T16S17AA-CCR5,improved
same,LogEC50 of CCL5-induced Gαi signaling via CCR5,"CCR5; CHO GAG-plus (WT CHO-K1) cells, CCL5 alone without peptide",−7.522 ± 0.639
same,Gαi signaling via CCR5 in DeltaSia cells compared to WT cells,CCR5; HEK293 DeltaSia (ST3GAL1/2 KO),significantly impaired
same,Gαi signaling via CCR5 in DeltaSia and sC cells,"CCR5; HEK293 DeltaSia and sC, CCL5 oligomerization variants experiment",very low
same,Gαi signaling via CCR5 in sC cells compared to WT cells,CCR5; HEK293 sC (C1GALT1 KO),almost abolished
same,Gαi signaling via M1-CCR5 in DeltaSia and sC cells compared to WT cells,"CCR5; M1-tagged CCR5, HEK293 DeltaSia and sC",drastically reduced
RKDRGASKTGKKGKGSKGCKRTERSQTPKGP [C21TP^81-111],boosting of CCL5 signaling via Y10A receptor variant,Y10A-CCR5; 10 µM peptide,maintained
same,boosting of CCL5 signaling via S6S7T16S17AAAA receptor variant,S6S7T16S17AAAA-CCR5; 10 µM peptide,not in S6S7T16S17AAAA
same,boosting of CCL5 signaling via S6S7AA receptor variant,S6S7AA-CCR5; 10 µM peptide,maintained
same,boosting of CCL5 signaling via Y10Y14Y15AAA receptor variant,Y10Y14Y15AAA-CCR5; 10 µM peptide,no longer possible
same,boosting of CCL5 signaling via T16S17AA receptor variant,T16S17AA-CCR5; 10 µM peptide,maintained
same,boosting of CCL5 signaling via CCR5 in GAG-plus (WT) and GAG-minus cells,"CCR5; CHO GAG-plus and CHO GAG-minus (CHO-pgsB618) cells, 10 µM peptide",boosted
same,boosting of CCL5-induced Gαi signaling via CCR5,CCR5; [1],boosted
same,boosting of CCL8-induced Gαi signaling via CCR5,CCR5; [1],boosted
same,effect on CCL3-induced Gαi signaling via CCR5,CCR5; [1],not affected
same,"boosting of signaling by CCL5, E26A and E66A via CCR5","CCR5; HEK293 DeltaSia and sC cells, 10 µM peptide",lost
same,"boosting of signaling by CCL5, E26A and E66A via CCR5","CCR5; HEK293 WT cells, 10 µM peptide",boosting occurs with all three versions of CCL5
same,boosting of CCL3 signaling via CCR5,CCR5; [2],absent
same,boosting of CCL5 signaling via CCR5,CCR5; [2],observed in all three cell lines
same,boosting of CCL8 signaling via CCR5,CCR5; [2],absent
same,boosting of E66A signaling via CCR5,"CCR5; HEK293 sC cells, 10 µM peptide",significantly boosted
same,boosting of CCL3-induced signaling via M1-CCR5,CCR5; [3],not boosted
same,boosting of CCL5-induced signaling via M1-CCR5,CCR5; [3],boosted
same,boosting of CCL8-induced signaling via M1-CCR5,CCR5; [3],not boosted
